From patent US6103883A (priority 1999, dated 2000)

target: T1, verotoxin binding to Gb3 (Enterobacteria phage H19B, UniProt P69179); details: competition with radiolabelled verotoxin 1; FIG. 5C

Q: `CN(C)C(CO[C@@H]1O[C@H](CO)[C@@H](O[C@@H]2O[C@H](CO)[C@H](O[C@H]3O[C@H](CO)[C@H](O)[C@H](O)[C@H]3O)[C@H](O)[C@H]2O)[C@H](O)[C@H]1O)C(O)C(=O)NC12CC3CC(CC(C3)C1)C2` (stereo partly shown) [Compound A] was tested. Which “inhibition of verotoxin binding to Gb3” value did it give?
A: Its value is “effective inhibition”.

Q: With `CN(C)C(CO[C@@H]1O[C@H](CO)[C@@H](O[C@@H]2O[C@H](CO)[C@H](O[C@H]3O[C@H](CO)[C@H](O)[C@H](O)[C@H]3O)[C@H](O)[C@H]2O)[C@H](O)[C@H]1O)C(O)C(=O)Nc1c2c(nc3ccccc13)CCCC2` (stereo partly shown) [Compound B] as the compound, how does the “inhibition of verotoxin binding to Gb3” value read?
A: Its value is “effective inhibition”.

Q: How did the “inhibition of verotoxin binding to Gb3” value turn out when `OC[C@H]1O[C@H](O[C@@H]2[C@H](O)[C@@H](O)[C@H](O[C@H]3[C@H](O)[C@@H](O)C(O)O[C@@H]3CO)O[C@@H]2CO)[C@H](O)[C@@H](O)[C@H]1O` (stereo partly shown) [Gb3 -sugar, globotriaose, reference compound] was run?
A: The value was “virtually no inhibition”.

target: T1, verotoxin binding to Gb3; details: spectrophotometric detection; FIG. 6B

Q: `O=C(CC12CC3CC(CC(C3)C1)C2)NC(CO[C@@H]1O[C@H](CO)[C@@H](O[C@@H]2O[C@H](CO)[C@H](O[C@H]3O[C@H](CO)[C@H](O)[C@H](O)[C@H]3O)[C@H](O)[C@H]2O)[C@H](O)[C@H]1O)C(O)C(=O)O` (stereo partly shown) [Compound A1] was tested. Which “inhibition of binding of verotoxin to Gb3” value did it give?
A: Its value is “do not appear to be effective inhibitors”.

Q: For `CCCCCCCCCCCCC/C=C/[C@@H](O)[C@H](CO[C@@H]1O[C@H](CO)[C@@H](O[C@@H]2O[C@H](CO)[C@H](O[C@H]3O[C@H](CO)[C@H](O)[C@H](O)[C@H]3O)[C@H](O)[C@H]2O)[C@H](O)[C@H]1O)NC(=O)CC12CC3CC(CC(C3)C1)C2` [Compound A3], which “inhibition of binding of verotoxin to Gb3” value is on record?
A: Its value is “effective water-soluble inhibitor”.

Q: Which “inhibition of binding of verotoxin to Gb3” value does the source give for `CCCCCCCCCCCCC/C=C/[C@@H](O)[C@H](CO[C@@H]1O[C@H](CO)[C@H](O)[C@H](O)[C@H]1O)NC(=O)CC12CC3CC(CC(C3)C1)C2` [Compound B1] here?
A: The value was “do not appear to be effective inhibitors”.

Q: How did the “inhibition of binding of verotoxin to Gb3” value turn out when `O=C(CC12CC3CC(CC(C3)C1)C2)NC(CO[C@@H]1O[C@H](CO)[C@H](O)[C@H](O)[C@H]1O)C(O)C(=O)O` (stereo partly shown) [Compound B2] was run?
A: The value was “do not appear to be effective inhibitors”.
